Laboratory results reported in patent US20260224563A1, “CRYSTALLINE FORMS OF 6-(3-((5-CHLORO-2-METHOXYPYRIDINE)-3-SULFONAMIDO)-2,6-DIFLUOROPHENYL)-N-METHYLIMIDAZO[1,5-A]PYRAZINE-1-CARBOXAMIDE AND METHODS FOR USING THE SAME” (HIBERCELL, INC., priority 2023, published 2026).
Where a name gives a salt, the structure may show the parent alone.

Experiment: Solid-state stability (60° C./closed and 40° C./75% relative humidity open, up to seven days; HPLC purity, XRPD)
Assay type: physicochemical
Protocol: HPLC method for stability and solubility testing is listed below.
• Column: Ascentis® Express C18 4.6*150 mm*2.7 μm • Mobile Phase A: 0.05% trifluoroacetic acid in water • Mobile Phase B: Methanol • Gradient (T/B %): 0/10, 10/100, 13.5/10, 15/10 • Column Temperature: 40° C. • Detector: DAD; 220 nm • Flow rate: 1.0 mL/min • Injection volume: 1 μL • Concentration: 1 mg/mL • Run time: 15 minutes • Diluent: Methanol:Water 9:1 (v/v)
The solid-state stability of Form III of the potassium salt was performed using the following protocol: • (1) A sample of Form III of the potassium salt was placed at 60° C./closed and 40° C./75% relative humidity (open) conditions for up to seven days. At the onset of the test (day 0) and day 7 of the test, the sample was dissolved in a diluent to prepare a 1 mg/mL solution for HPLC purity analysis. The solid sample was analyzed by XRPD to assess the crystal form of each solid at day 7. […] The XRPD data confirmed the physicochemical stability of Form III of the potassium salt under both closed and open conditions. […]

## CNC(=O)c1ncn2cc(-c3c(F)ccc(NS(=O)(=O)c4cc(Cl)cnc4OC)c3F)ncc12 [Potassium salt Form III, 6-(3-((5-chloro-2-methoxypyridine)-3-sulfonamido)-2,6-difluorophenyl)-N-methylimidazo[1,5-a]pyrazine-1-carboxamide]
0 day
  Purity (Area %) 220 nm: 99.90 Area %
40° C./75% RH (open)
  XRPD After 7 Days: Unchanged
40° C./75% RH (open), 7 days
  Purity (Area %) 220 nm: 99.90 Area %
60° C./closed, 7 days
  Purity (Area %) 220 nm: 99.90 Area %
  XRPD After 7 Days: Unchanged
Both closed (60° C.) and open (40° C./75% RH) conditions for seven days
  physical and chemical stability: maintained physical and chemical stability
